How the values were obtained:
J774 [1] = assay: Antiproliferative against mouse J774 cells after 72 hrs by Cell titer assay; assay type: cell-based; settings: J774, 72 h
Plasmodium falciparum [2] = assay: Antimalarial activity against chloroquine-, mefloquine-, pyrimethamine-,atovaquone-resistant ring stage Plasmodium falciparum TM90-C2B infected in human A positive erythrocytes after 72 hrs by SYBR green 1-based fluorescence assay; assay type: functional, organism-based
Plasmodium falciparum [3] = assay: Antimalarial activity against chloroquine-, pyrimethamine-resistant ring stage Plasmodium falciparum W2 infected in human A positive erythrocytes after 72 hrs by SYBR green 1-based fluorescence assay; assay type: functional, organism-based; settings: W2, 72 h
[4] = Cytotoxicity index, ratio of EC50 for mouse J774 cells to EC50 for chloroquine-, mefloquine, pyrimethamine-,atovaquone-resistant ring stage Plasmodium falciparum TM90-C2B; assay type: cell-based; settings: read-out: Ratio EC50
Plasmodium falciparum [5] = assay: Resistance ratio, ratio of EC50 for chloroquine-, mefloquine, pyrimethamine-,atovaquone-resistant ring stage Plasmodium falciparum TM90-C2B to EC50 for chloroquine-, pyrimethamine-resistant Plasmodium falciparum W2; assay type: functional
J774 [6] = assay: Antiproliferative against mouse J774 cells at < 20 uM after 72 hrs by Cell titer assay; assay type: cell-based; settings: j774, 72 h

Compound `CCCCc1cc2c(=O)c(-c3ccc(C(F)(F)F)cc3F)c(C)[nH]c2cc1OCCOc1ccccc1` has an EC50 (J774 [1]) of 19000 nM, an EC50 (Plasmodium falciparum [2]) of 30.9 nM and an EC50 (Plasmodium falciparum [3]) of 27.9 nM. The selectivity ratio [4] was no less than 100, the “Ratio EC50” value (Plasmodium falciparum [5]) was 1.11 and the Activity (J774 [6]) was “Non-toxic”.

In the case of `CCCCc1cc2c(=O)c(C(=O)OC)c[nH]c2cc1OCCOc1ccccc1`, the EC50 (J774 [1]) is reported as 46000 nM, the EC50 (Plasmodium falciparum [2]) is reported as 11.2 nM and the EC50 (Plasmodium falciparum [3]) is reported as 0.05 nM. For the same compound, the selectivity ratio [4] was no less than 100, the “Ratio EC50” value (Plasmodium falciparum [5]) was 223 and the Activity (J774 [6]) was “Non-toxic”.

In the case of `COC(=O)c1c[nH]c2cc(OC)c(Cl)cc2c1=O`, the EC50 (J774 [1]) is reported as 37000 nM, the EC50 (Plasmodium falciparum [2]) is reported as 765 nM and the EC50 (Plasmodium falciparum [3]) is reported as 134 nM. For the same compound, the selectivity ratio [4] was no less than 100, the “Ratio EC50” value (Plasmodium falciparum [5]) was 5.7 and the Activity (J774 [6]) was “Non-toxic”.

With `CCCCc1cc2c(=O)cc(C)[nH]c2cc1OCCOc1ccccc1` the EC50 (J774 [1]) was 28000 nM, the EC50 (Plasmodium falciparum [2]) was 44.1 nM and the EC50 (Plasmodium falciparum [3]) was 216 nM. The selectivity ratio [4] was no less than 100, the “Ratio EC50” value (Plasmodium falciparum [5]) was 0.2 and the Activity (J774 [6]) was “Non-toxic”.

Compound `CCCCc1cc2c(=O)c(CC)c(C)[nH]c2cc1OCCOc1ccccc1` has an EC50 (J774 [1]) of 1000 nM, an EC50 (Plasmodium falciparum [2]) of 0.15 nM and an EC50 (Plasmodium falciparum [3]) of 1.92 nM. For the same compound, the selectivity ratio [4] was no less than 100, the “Ratio EC50” value (Plasmodium falciparum [5]) was 0.08 and the Activity (J774 [6]) was “Non-toxic”.

`CCc1c(C)[nH]c2cc(OCCOc3ccccc3)ccc2c1=O` showed an EC50 (J774 [1]) of 4000 nM, an EC50 (Plasmodium falciparum [2]) of 71.3 nM and an EC50 (Plasmodium falciparum [3]) of 104 nM. The selectivity ratio [4] was no less than 100, the “Ratio EC50” value (Plasmodium falciparum [5]) was 0.79 and the Activity (J774 [6]) was “Non-toxic”.

Work on `CCc1c(C)[nH]c2cc(OCCOc3ccccc3)c(Cl)cc2c1=O` yielded an EC50 (J774 [1]) greater than 28000 nM, an EC50 (Plasmodium falciparum [2]) of 72.1 nM and an EC50 (Plasmodium falciparum [3]) of 256 nM. For the same compound, the selectivity ratio [4] was no less than 100, the “Ratio EC50” value (Plasmodium falciparum [5]) was 0.28 and the Activity (J774 [6]) was “Non-toxic”.

Work on `CCc1c(C)[nH]c2cc(OCCOc3ccccc3)c(Br)cc2c1=O` yielded an EC50 (J774 [1]) greater than 25000 nM, an EC50 (Plasmodium falciparum [2]) of 43.5 nM and an EC50 (Plasmodium falciparum [3]) of 203 nM. For the same compound, the selectivity ratio [4] was no less than 100, the “Ratio EC50” value (Plasmodium falciparum [5]) was 0.21 and the Activity (J774 [6]) was “Non-toxic”.

`CCc1c(C)[nH]c2cc(OCCOc3ccccc3)c(C)cc2c1=O` showed an EC50 (J774 [1]) greater than 30000 nM, an EC50 (Plasmodium falciparum [2]) of 27.7 nM and an EC50 (Plasmodium falciparum [3]) of 255 nM. The selectivity ratio [4] was no less than 100, the “Ratio EC50” value (Plasmodium falciparum [5]) was 0.11 and the Activity (J774 [6]) was “Non-toxic”.

`CCc1c(C)[nH]c2cc(OCCOc3ccccc3)c(OC)cc2c1=O` gave an EC50 (J774 [1]) greater than 29000 nM, an EC50 (Plasmodium falciparum [2]) of 19.5 nM and an EC50 (Plasmodium falciparum [3]) of 184 nM. The selectivity ratio [4] was no less than 100, the “Ratio EC50” value (Plasmodium falciparum [5]) was 0.11 and the Activity (J774 [6]) was “Non-toxic”.

With `CCc1c(C)[nH]c2cc(OCOC)c(Cl)cc2c1=O` the EC50 (J774 [1]) was 19000 nM, the EC50 (Plasmodium falciparum [2]) was 79.7 nM and the EC50 (Plasmodium falciparum [3]) was 908 nM. For the same compound, the selectivity ratio [4] was no less than 100, the “Ratio EC50” value (Plasmodium falciparum [5]) was 0.09 and the Activity (J774 [6]) was “Non-toxic”.

For `CCc1c(C)[nH]c2cc(OCCCO)c(Cl)cc2c1=O`, the EC50 (Plasmodium falciparum [2]) was 776 nM, the EC50 (Plasmodium falciparum [3]) was 8450 nM and the selectivity ratio [4] was no less than 100. The “Ratio EC50” value (Plasmodium falciparum [5]) was 0.09 and the Activity (J774 [6]) was “Non-toxic”.

`CCc1c(C)[nH]c2cc(OCCCOC(=O)C(CC)C(C)=O)c(Cl)cc2c1=O` (stereo not given) showed an EC50 (Plasmodium falciparum [2]) of 6130 nM, an EC50 (Plasmodium falciparum [3]) of 6130 nM and a selectivity ratio [4] of no less than 100. The “Ratio EC50” value (Plasmodium falciparum [5]) was 1 and the Activity (J774 [6]) was “Non-toxic”.

Work on `CCc1c(C)[nH]c2cc(OCCN3CCOCC3)c(Cl)cc2c1=O` yielded an EC50 (Plasmodium falciparum [2]) of 726 nM, an EC50 (Plasmodium falciparum [3]) of 5090 nM and a selectivity ratio [4] of no less than 100. The “Ratio EC50” value (Plasmodium falciparum [5]) was 0.14 and the Activity (J774 [6]) was “Non-toxic”.

Compound `CCc1c(C)[nH]c2cc(OCCN(C)C)c(Cl)cc2c1=O` has an EC50 (Plasmodium falciparum [2]) of 604 nM, an EC50 (Plasmodium falciparum [3]) of 5050 nM and a selectivity ratio [4] of no less than 100. For the same compound, the “Ratio EC50” value (Plasmodium falciparum [5]) was 0.12 and the Activity (J774 [6]) was “Non-toxic”.

Compound `CCc1c(C)[nH]c2cc(OCCCN3CCN(c4ccccc4)CC3)c(Cl)cc2c1=O` has an EC50 (J774 [1]) greater than 23000 nM, an EC50 (Plasmodium falciparum [2]) of 91.7 nM and an EC50 (Plasmodium falciparum [3]) of 976 nM. The selectivity ratio [4] was no less than 100, the “Ratio EC50” value (Plasmodium falciparum [5]) was 0.09 and the Activity (J774 [6]) was “Non-toxic”.

`CCCCc1cc2c(=O)c(-c3ccccc3)c(C)[nH]c2cc1OCCOc1ccccc1` gave an EC50 (J774 [1]) of 23000 nM, an EC50 (Plasmodium falciparum [2]) of 764 nM and an EC50 (Plasmodium falciparum [3]) of 1070 nM. For the same compound, the selectivity ratio [4] was no less than 100, the “Ratio EC50” value (Plasmodium falciparum [5]) was 0.71 and the Activity (J774 [6]) was “Non-toxic”.

Compound `CCCCc1cc2c(=O)c(-c3ccncc3)c(C)[nH]c2cc1OCCOc1ccccc1` has an EC50 (J774 [1]) of 23000 nM, an EC50 (Plasmodium falciparum [2]) of 1020 nM and an EC50 (Plasmodium falciparum [3]) of 3150 nM. For the same compound, the selectivity ratio [4] was no less than 100, the “Ratio EC50” value (Plasmodium falciparum [5]) was 0.32 and the Activity (J774 [6]) was “Non-toxic”.

In the case of `CCCCc1cc2c(=O)c(-c3cccnc3)c(C)[nH]c2cc1OCCOc1ccccc1`, the EC50 (J774 [1]) is reported as 23000 nM, the EC50 (Plasmodium falciparum [2]) is reported as 588 nM and the EC50 (Plasmodium falciparum [3]) is reported as 1350 nM. For the same compound, the selectivity ratio [4] was no less than 100, the “Ratio EC50” value (Plasmodium falciparum [5]) was 0.44 and the Activity (J774 [6]) was “Non-toxic”.

For `CCCCc1cc2c(=O)c(-c3ccc(C(F)(F)F)cc3)c(C)[nH]c2cc1OCCOc1ccccc1`, the EC50 (J774 [1]) was 20000 nM, the EC50 (Plasmodium falciparum [2]) was 2450 nM and the EC50 (Plasmodium falciparum [3]) was 509 nM. The selectivity ratio [4] was no less than 100, the “Ratio EC50” value (Plasmodium falciparum [5]) was 4.82 and the Activity (J774 [6]) was “Non-toxic”.

For `CCCCc1cc2c(=O)c(-c3ccc(OC(F)(F)F)cc3)c(C)[nH]c2cc1OCCOc1ccccc1`, the EC50 (J774 [1]) was 20000 nM, the EC50 (Plasmodium falciparum [2]) was 2510 nM and the EC50 (Plasmodium falciparum [3]) was 3220 nM. For the same compound, the selectivity ratio [4] was no less than 100, the “Ratio EC50” value (Plasmodium falciparum [5]) was 0.78 and the Activity (J774 [6]) was “Non-toxic”.

Compound `CCCCc1cc2c(=O)c(-c3cccc(Oc4ccc(F)cc4)c3)c(C)[nH]c2cc1OCCOc1ccccc1` has an EC50 (J774 [1]) of 19000 nM, an EC50 (Plasmodium falciparum [2]) of 1000 nM and an EC50 (Plasmodium falciparum [3]) of 1390 nM. The selectivity ratio [4] was no less than 100, the “Ratio EC50” value (Plasmodium falciparum [5]) was 0.72 and the Activity (J774 [6]) was “Non-toxic”.

Compound `CCCCc1cc2c(=O)c(-c3ccc(COc4ccc(OC(F)(F)F)cc4)cc3)c(C)[nH]c2cc1OCCOc1ccccc1` has an EC50 (J774 [1]) of 16000 nM, an EC50 (Plasmodium falciparum [2]) of 4050 nM and an EC50 (Plasmodium falciparum [3]) of 4050 nM. For the same compound, the selectivity ratio [4] was no less than 100, the “Ratio EC50” value (Plasmodium falciparum [5]) was 1 and the Activity (J774 [6]) was “Non-toxic”.

With `CCCCc1cc2c(=O)c(-c3ccc(Oc4ccc(OC(F)(F)F)cc4)cc3C)c(C)[nH]c2cc1OCCOc1ccccc1` the EC50 (J774 [1]) was 16000 nM, the EC50 (Plasmodium falciparum [2]) was 475 nM and the EC50 (Plasmodium falciparum [3]) was 58.5 nM. The selectivity ratio [4] was no less than 100, the “Ratio EC50” value (Plasmodium falciparum [5]) was 8.12 and the Activity (J774 [6]) was “Non-toxic”.

In the case of `CCCCc1cc2c(=O)c(-c3ccc(C(F)(F)F)cc3C)c(C)[nH]c2cc1OCCOc1ccccc1`, the EC50 (J774 [1]) is reported as 20000 nM, the EC50 (Plasmodium falciparum [2]) is reported as 140 nM and the EC50 (Plasmodium falciparum [3]) is reported as 71.8 nM. For the same compound, the selectivity ratio [4] was no less than 100, the “Ratio EC50” value (Plasmodium falciparum [5]) was 1.95 and the Activity (J774 [6]) was “Non-toxic”.

`CCCCc1cc2c(=O)c(-c3ccc(C)cc3C)c(C)[nH]c2cc1OCCOc1ccccc1` showed an EC50 (J774 [1]) of 22000 nM, an EC50 (Plasmodium falciparum [2]) of 1630 nM and an EC50 (Plasmodium falciparum [3]) of 907 nM. The selectivity ratio [4] was no less than 100, the “Ratio EC50” value (Plasmodium falciparum [5]) was 1.79 and the Activity (J774 [6]) was “Non-toxic”.

`CCCCc1cc2c(=O)c(-c3ccc(Cl)cc3C)c(C)[nH]c2cc1OCCOc1ccccc1` gave an EC50 (J774 [1]) greater than 21000 nM, an EC50 (Plasmodium falciparum [2]) of 542 nM and an EC50 (Plasmodium falciparum [3]) of 68.7 nM. The selectivity ratio [4] was no less than 100, the “Ratio EC50” value (Plasmodium falciparum [5]) was 7.89 and the Activity (J774 [6]) was “Non-toxic”.

Compound `CCCCc1cc2c(=O)c(-c3c(C)noc3C)c(C)[nH]c2cc1OCCOc1ccccc1` has an EC50 (J774 [1]) of 22000 nM, an EC50 (Plasmodium falciparum [2]) of 128 nM and an EC50 (Plasmodium falciparum [3]) of 27 nM. For the same compound, the selectivity ratio [4] was no less than 100, the “Ratio EC50” value (Plasmodium falciparum [5]) was 4.73 and the Activity (J774 [6]) was “Non-toxic”.

Compound `O=C1C(O)=C([C@H]2CC[C@H](c3ccc(Cl)cc3)CC2)C(=O)c2ccccc21` [ATOVAQUONE] has an EC50 (Plasmodium falciparum [2]) greater than 170 nM.

— ChEMBL document CHEMBL1938249, “Synthesis, antimalarial activity, and structure-activity relationship of 7-(2-phenoxyethoxy)-4(1H)-quinolones” (J Med Chem, 2011)
